Data published in patent US20100249132A1, “IMIDAZOLE DERIVATIVES” (MERCK PATENT GESELLSCHAFT MIT BESCHRANKTER HAFTUNG, priority 2007, published 2010).
pIC50: −log10 of the molar value.

Biological target: T1, recombinant autotaxin (Homo sapiens, UniProt Q13822)
T1 construct: made in house; host or cells: Hi5 insect cells (baculovirus)
Experiment: Autotaxin test (enzyme test), Amplex Red fluorescence
Type: biochemical
Conditions: substrate LPC 75 μM, Amplex Red detection, read-out: IC50 (autotaxin inhibition, enzyme test)
Procedure: Autotaxin Inhibition (Enzyme Test)
Autotaxin Test (Enzyme Test)
The autotaxin activity is measured indirectly using Amplex Red reagent. Amplex Red is measured here as fluorogenic indicator for the H2O2 formed. In detail, autotaxin converts the substrate lysophosphatidylcholine (LPC) into phosphocholine and lysophosphatidylic acid (LPA). After this reaction, the phosphocholine is reacted with alkaline phosphatase to give inorganic phosphate and choline. In the next step, choline is oxidised by choline oxidase to give betaine, with formation of H2O2. H2O2 reacts with Amplex Red reagent in the presence of peroxidase (horseradish peroxidase) in a 1:1 stoichiometry and forms the highly fluorescent resorufin. The fluorescence is measured in a reaction-dependent kinetic mode in order that fluorescent signals from possible other fluorescent substances which are not involved in the reaction can be corrected out.
1.5 μl of a standard solution or of the test substances (substances with the name A(n)) in individual concentrations dissolved in 20 mM Hepes pH 7.2 with a maximum of 7.7% of DMSO are pre-incubated together with 10 μl (16 ng) of highly purified recombinant autotaxin in a black microtitre plate provided with 384 wells at 22° C. for 30 min. The reaction is then initiated by addition of 5 μl of L-α-lysophosphatidylcholine (LPC), where the final concentration of LPC is 75 μM. The mixture is incubated at 37° C. for 90 min. After the incubation, Amplex Red reagent, peroxidase (horseradish peroxidase) and choline oxidase is added, and the fluorescence is immediately measured at 612 nm with excitation of 485 nm in a “Tecan Ultra multimode” reader. The activity of autotaxin is calculated indirectly via detection of the H2O2 formed. • Material: • Microtitre plate: PS microplate, 384 wells, small volume, black Corning, Cat #3677 • Protein: recombinant autotaxin (Baculovirale Hi5 Expression) • Substrate: L-α-lysophosphatidylcholine (chicken egg)); Avanti Polar Lipids #830071 P • Standard: C14 LPA, Avanti Polar Lipids, Cat #857120P • Detection reagent: Amplex Red reagent; Invitrogen #A12222; dissolved in 1.923 ml of DMSO peroxidase type VI-A (horseradish) from Sigma #P6782; dissolved in 7.45 ml of test buffer, choline oxidase; Sigma #C5896; dissolved in 2.47 ml of test buffer • Detection reagent mix: 1:100 dilution of Amplex Red reagent in test buffer • Test buffer: 200 mM Tris HCl, Merck, Cat #1.08219, pH 7.9, 0.1% of BSA, lipid-free, Roche Cat #775835

| SMILES | pIC50 |
| --- | --- |
| CCCCc1ccc(NC(=O)Nc2[nH]c(Cc3ccc(C(=O)N4CCOCC4)o3)nc2C(N)=O)cc1 [Compound A83, 5-[3-(4-Butylphenyl)ureido]-2-[5-(morpholine-4-carbonyl)furan-2-ylmethyl]-1H-imidazole-4-carboxamide] | < 5.00 |
| CCc1ccc(NC(=O)Nc2[nH]c(Cc3ccc(OCC(=O)O)cc3)nc2C(N)=O)cc1 [Compound A42, (4-{4-Carbamoyl-5-[3-(4-ethylphenyl)ureido]-1H imidazol-2-ylmethyl}phenoxy)acetic acid] | 5.00 to 6.00 |
| Cc1ccc(NC(=O)Nc2[nH]c(-c3ccc(OCC(=O)O)cc3)nc2C(N)=O)cc1 [Compound A53, {4-[4-Carbamoyl-5-(3-p-tolylureido)-1H-imidazol 2-yl]phenoxy}acetic acid] | < 5.00 |
| Cc1cccc(C)c1NC(=O)Nc1[nH]c(Cc2ccc(C(=O)O)o2)nc1C(N)=O [Compound A26, 5-{4-Carbamoyl-5-[3-(2,6-dimethylphenyl)-ureido]-1H-imidazol-2-ylmethyl}furan-2-carboxylic acid] | < 5.00 |
| CCCCc1ccc(NC(=O)Nc2[nH]c(Cc3ccc(C(=O)O)cc3)nc2C(N)=O)cc1 [Compound A3, 4-{5-[3-(4-Butylphenyl)ureido]-4-carbamoyl-1H-imidazol-2-ylmethyl}benzoic acid] | < 5.00 |
| CCCCOc1ccc(NC(=O)Nc2[nH]c(Cc3ccc(O)cc3)nc2C(N)=O)cc1 [Compound A95, 5-[3-(4-Butoxyphenyl)ureido]-2-(4-hydroxy-benzyl)-1H-imidazole-4-carboxamides] | < 5.00 |
| NC(=O)c1nc(Cc2ccc(OCC(=O)O)cc2)[nH]c1NC(=O)Nc1cccc(C(F)(F)F)c1 [Compound A37, (4-{4-Carbamoyl-5-[3-(3-trifluoromethylphenyl)-ureido]-1H-imidazol-2-ylmethyl}phenoxy)acetic acid] | < 5.00 |
| CCc1ccc(NC(=O)Nc2[nH]c(Cc3ccc(C(=O)O)s3)nc2C(N)=O)cc1 [Compound A72, 5-{4-Carbamoyl-5-[3-(4-ethylphenyl)ureido]-1H-imidazol-2-ylmethyl}thiophene-2-carboxylic acid] | 5.00 to 6.00 |
| NC(=O)c1nc(Cc2ccc(OCC(=O)O)cc2)[nH]c1NC(=O)Nc1ccc(C(F)(F)F)cc1 [Compound A38, (4-{4-Carbamoyl-5-[3-(4-trifluoromethylphenyl)-ureido]-1H-imidazol-2-ylmethyl}phenoxy)acetic acid] | 5.00 to 6.00 |
| Cc1cccc(C)c1NC(=O)Nc1[nH]c(-c2ccc(OCC(=O)O)cc2)nc1C(N)=O [Compound A48, (4-{4-Carbamoyl-5-[3-(2,6-dimethylphenyl)-ureido]-1H-imidazol-2-yl}phenoxy)acetic acid] | < 5.00 |
| CCCCc1ccc(NC(=O)Nc2[nH]c(Cc3ccc(C(=O)N4CCN(c5ccccc5)CC4)o3)nc2C(N)=O)cc1 [Compound A86, 5-[3-(4-Butylphenyl)ureido]-2-[5-(4-phenyl-piperazine-1-carbonyl)furan-2-ylmethyl]-1H-imidazole-4-carboxamide] | < 5.00 |
| Cc1ccc(NC(=O)Nc2[nH]c(Cc3ccc(OCC(=O)O)cc3)nc2C(N)=O)cc1 [Compound A40, {4-[4-Carbamoyl-5-(3-p-tolylureido)-1H-imidazol 2-ylmethyl]phenoxy}acetic acid] | 5.00 to 6.00 |
| CC(C)c1ccc(NC(=O)Nc2[nH]c(Cc3ccc(C(=O)O)cc3)nc2C(N)=O)cc1 [Compound A2, 4-{4-Carbamoyl-5-[3-(4-isopropylphenyl)ureido]-1H-imidazol-2-ylmethyl}benzoic acid] | 5.00 to 6.00 |
| CCCCc1ccc(NC(=O)Nc2[nH]c(Cc3ccc(C(=O)N(C)c4ccccc4)o3)nc2C(N)=O)cc1 [Compound A84, 5-[3-(4-Butylphenyl)ureido]-2-[5-(methylphenyl-carbamoyl)furan-2-ylmethyl]-1H-imidazole-4-carboxamide] | 5.00 to 6.00 |
| NC(=O)c1nc(CCC(=O)Nc2ccc3[nH]nnc3c2)[nH]c1NC(=O)Nc1ccc(Cl)cc1 [Compound B80] | < 5.00 |
